Laboratory results taken from patent US8765755B2, “N-containing heterocyclic compounds” (YM Biosciences Australia Pty Ltd, priority 2007, dated 2014).

Key:
BafT_J3 = experiment: Cellular screening, BaF3 TEL:JAK3 cells (Alamar Blue); type: cell-based; conditions: Mus musculus, 40 hr incubation
Method: (§1) For screening purposes, compounds were diluted in 96 well plates at a concentration of 20 μM. Plates were warmed at 37° C. for 30 minutes before the assay was performed.
(§2) The coding region encompassing nucleotides 1-487 of TEL was amplified by PCR using the oligonucleotides 5TEL (5′-GGAGGATCCTGATCTCTCTCGCTGTGAGAC-3′) [SEQ ID NO 14] and 3TEL (5′-AGGC GTCGACTTCTTCTTCATGGTTCTG-3′) [SEQ ID NO 15] and U937 mRNA as a template. A BamHI restriction site was incorporated into the 5TEL primer, and a Sal I restriction site was incorporated into the 3TEL primer. The regions encompassing the kinase domain of JAK2 (nucleotides 2994-3914; JAK2F 5′-ACGC GTCGACGGTGCCTTTGAAGACCGGGAT-3′ [SEQ ID NO 16]; JAK2R 5′-ATAGTTTAGCGGCCGCTCAGAATGAAGGTCATTT-3′) [SEQ ID NO 17] and JAK3 (nucleotides 2520-3469; JAK3F 5′-GAAGTCGACTATGCCTGCCAAGACCCCACGATCTT-3′) [SEQ ID NO 18] were generated by PCR using Taq DNA polymerase (Gibco/BRL) and U937 mRNA as a template. A Sal I restriction site was incorporated into the forward primer of JAK2 and JAK3, a Not I site was incorporated into the JAK2 reverse primer and a Xba I site was added to the reverse primer of JAK3.
The TEL/Jak3 fusion was prepared by ligation of the JAK3 Sal I/Not I cleaved kinase domain PCR product with the BamH I/Sal I restriction digested TEL product, followed by ligation of the ligation product into the BamH I/Not I digested pTRE2, to give the TEL/Jak3 fusion plasmid pTELJAK3.
(§3) The growth factor dependant myelomonocytic cell line BaF3 bearing the pTET-off plasmid (Clontech) was transfected with either pTELJAK2 or pTELJAK3, and the transfected cells were selected for growth-factor independent cell growth. The BaF3 wild-type cells were cultured in DMEM containing 10% FCS, 10% WEHI 3B conditioned medium. The BaF3 TELJAK cells ([…]) were cultured in DMEM 10% Tet-System Approved FBS (without WEHI 3B conditioned medium).
(§4) Cell suspensions were prepared by harvesting cells from culture. (the cells used in this test were in late log phase growth with high viability.) Cells were diluted in the appropriate growth medium, as described above, to 1.1× final concentration (from 50,000 cell/mL to 200,000 cell/mL, depending on cell line).
(§5) Compounds to be tested were added (10 μL, 10× final concentration) to a flat bottomed 96-well plate. The cellular suspension (90 μL per well) was then added, and the plate incubated for 40 hr at 37° C., 5% CO2. Alamar Blue 10 μL per well was added and the plates returned to the incubator for a further 4-6 hours. The plates were then read at 544 nm.

human JAK2 = biological target: T1, human JAK2 (Homo sapiens, UniProt O60674); experiment: JAK2 kinase enzyme assay (Alphascreen); type: biochemical; conditions: 80 or 625 um ATP
T1 construct: The kinase domain of human JAK2 was amplified; GST (N); made in house; host or cells: Sf9 (Spodoptera frugiperda) insect cells, baculovirus
T1 sequence (O60674 849-1124 limits assumed): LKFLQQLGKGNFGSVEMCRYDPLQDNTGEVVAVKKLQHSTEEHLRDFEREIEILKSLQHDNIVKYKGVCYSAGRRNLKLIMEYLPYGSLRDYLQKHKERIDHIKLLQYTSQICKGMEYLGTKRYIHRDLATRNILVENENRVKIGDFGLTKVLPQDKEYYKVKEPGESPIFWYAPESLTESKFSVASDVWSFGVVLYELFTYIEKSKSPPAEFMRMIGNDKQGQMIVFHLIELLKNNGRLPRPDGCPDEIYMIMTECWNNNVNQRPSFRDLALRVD
Method: (§6) For screening purposes, compounds (in 100% DMSO) were warmed at 37 degrees for at least 20 minutes before use. A […] stock was initially made in assay buffer, where the final concentration of DMSO was 0.3%. The stocks were then diluted in 384 well Optiplates (Packard) where the final concentration of the compound was 5 μM.
The kinase domain of human JAK2 was amplified from U937mRNA using the polymerase chain reaction with the following primers: […]
The JAK2 PCR products were cloned into the pDest20 destination vector (Gibco). The JAK2 plasmid was then transformed into competent DH10Bac cells (Gibco), and the recombinant baculovirus was prepared via Sf9 insect cell transfection.
(§7) Baculovirus preparations from each of the JAK family members were infected into one litre of Sf9 (Spodoptera frugiperda) cells (Invitrogen) grown in SF900II serum free medium (Invitrogen) to a cell density of approximately 2×10^6 cells/ml. Cells were infected with virus at a cell culture to virus stock ratio of 20:1. Cells were harvested and lysed 48 hours post infection. The GST-tagged JAK kinase domains were purified by affinity chromatography on a GSH agarose column (Scientifix).
(§8) Kinase assays were performed in 384 well Optiplates (Packard) using an Alphascreen Protein Tyrosine KinaseP100 detection kit The compounds were pre-incubated with affinity purified PTK domain in the presence of phosphotyrosine assay buffer (10 mM HEPES, pH 7.5, 100 mM MgCl2, 25 mM NaCl, 200 mM sodium vanadate and 0.1% Tween 20) for 20 minutes. The compounds were then incubated with substrate in the presence of either 80 or 625 um ATP for 60 or 90 minutes. The substrate used was either susbtrate-1 with the sequence biotin-EGPWLEEEEEAYGWMDF-NH2 [SEQ. ID. NO. 13] (final concentration 111 μM) or susbtrate-2 substrate with the sequence biotin-EQEDEPEGDYFEWLEPE (final concentration 133 μM). Alphascreen phosphotyrosine acceptor beads followed by streptavidin donor beads at a concentration of 1/100 in stop buffer were added to each well under subdued light and incubated for 2-3 hours. The Alphascreen plates were read on a Packard Fusion Alpha instrument.

BAF3wt = experiment: Cellular screening, BaF3 wild-type cells (Alamar Blue); type: cell-based; conditions: Mus musculus, 40 hr incubation
Method: as §1, §3, §4, §5

CTLL2 = experiment: Cellular screening, CTLL2 cells (Alamar Blue); type: cell-based; conditions: Mus musculus, CTLL-2, 40 hr incubation
Method: as §1, §4, §5

human JAK3 = biological target: T2, human JAK3 (Homo sapiens, UniProt P52333); experiment: JAK3 kinase enzyme assay (Alphascreen); type: biochemical; conditions: 80 or 625 um ATP
T2 construct: The kinase domain of human JAK3 was amplified; GST (N); made in house; host or cells: Sf9 (Spodoptera frugiperda) insect cells, baculovirus
T2 sequence (P52333 822-1111 limits assumed): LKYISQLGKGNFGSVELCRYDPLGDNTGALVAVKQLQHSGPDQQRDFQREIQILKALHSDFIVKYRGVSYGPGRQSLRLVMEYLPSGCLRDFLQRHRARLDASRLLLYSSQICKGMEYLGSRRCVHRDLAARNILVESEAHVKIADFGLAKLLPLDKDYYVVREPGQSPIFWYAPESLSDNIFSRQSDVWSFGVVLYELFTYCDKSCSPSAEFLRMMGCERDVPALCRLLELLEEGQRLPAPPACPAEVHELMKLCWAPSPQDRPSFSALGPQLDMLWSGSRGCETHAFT
Method: as §6
The kinase domain of human JAK3 was amplified from U937mRNA using the polymerase chain reaction with the following primers: […]
The JAK3 PCR products were cloned into the pDest20 destination expression vector (Gibco). The JAK3 plasmid was then transformed into competent DH10Bac cells (Gibco), and the recombinant baculovirus was prepared via Sf9 insect cell transfection.
as §7, §8

BafT_J2 = experiment: Cellular screening, BaF3 TEL:JAK2 cells (Alamar Blue); type: cell-based; conditions: Mus musculus, 40 hr incubation
Method: as §1, §2
A TEL/Jak2 fusion was generated by digestion of the TELPCR product with BamH I/Sal I restriction enzymes, digestion of the JAK2 PCR product with Sal I/Not I restriction enzymes, followed by ligation and subcloning of the ligation product into the mammalian expression Vector pTRE 2 (Clontech), which was prepared by digestion with BamH I-Not I restriction enzymes, to give the TEL/Jak2 fusion plasmid pTELJAK2.
as §3, §4, §5

| Compound | IC50 (BafT_J3) | IC50 (human JAK2) | IC50 (BAF3wt) | IC50 (CTLL2) | IC50 (human JAK3) | IC50 (BafT_J2) |
| --- | --- | --- | --- | --- | --- | --- |
| CS(=O)(=O)Nc1cccc(-c2csc3cnc(Nc4ccc(CN5CCOCC5)cc4)nc23)c1 [Compound 83, N-(3-(2-(4-(morpholinomethyl)phenylamino)thieno[3,2-d]pyrimidin-7-yl)phenyl)methanesulfonamide] | < 1000 nM | < 100 nM | < 1000 nM | < 1000 nM | < 100 nM | < 1000 nM |
| CN1CCN(c2ccc(-c3csc4cnc(Nc5ccc(CN6CCOCC6)cc5)nc34)cc2)CC1 [Compound 84, 7-(4-(4-methylpiperazin-1-yl)phenyl)-N-(4-(morpholinomethyl)phenyl)thieno[3,2-d]pyrimidin-2-amine] | < 1000 nM | < 100 nM | < 1000 nM | < 1000 nM | < 500 nM | < 1000 nM |
| COc1cc(-c2csc3cnc(Nc4ccc(CN5CCOCC5)cc4)nc23)ccc1NC(C)=O [Compound 85, N-(2-methoxy-4-(2-(4-(morpholinomethyl)phenylamino)thieno[3,2-d]pyrimidin-7-yl)phenyl)acetamide] | < 1000 nM | < 100 nM | < 1000 nM | < 1000 nM | < 100 nM | < 1000 nM |
| COc1cc(Nc2ncc3scc(-c4cccc(CO)c4)c3n2)cc(OC)c1OC [Compound 87, (3-(2-(3,4,5-trimethoxyphenylamino)thieno[3,2-d]pyrimidin-7-yl)phenyl)methanol] | < 1000 nM | < 100 nM | < 1000 nM | < 1000 nM | < 100 nM | < 1000 nM |
| COc1cc(Nc2ncc3scc(-c4ccc(CO)cc4)c3n2)cc(OC)c1OC [Compound 88, (4-(2-(3,4,5-trimethoxyphenylamino)thieno[3,2-d]pyrimidin-7-yl)phenyl)methanol] | < 1000 nM | < 100 nM | < 1000 nM | < 1000 nM | < 100 nM | < 1000 nM |
| OCc1cccc(-c2csc3cnc(Nc4ccc(N5CCOCC5)cc4)nc23)c1 [Compound 89, (3-(2-(4-morpholinophenylamino)thieno[3,2-d]pyrimidin-7-yl)phenyl)methanol] | < 1000 nM | < 100 nM | < 1000 nM | < 1000 nM | < 100 nM | < 1000 nM |
| OCc1ccc(-c2csc3cnc(Nc4ccc(N5CCOCC5)cc4)nc23)cc1 [Compound 90, (4-(2-(4-morpholinophenylamino)thieno[3,2-d]pyrimidin-7-yl)phenyl)methanol] | < 1000 nM | < 100 nM | < 1000 nM | < 1000 nM | < 100 nM | < 1000 nM |
| CS(=O)(=O)NCc1cccc(-c2csc3cnc(Nc4ccc(OCCN5CCCC5)cc4)nc23)c1 [Compound 91] | < 1000 nM | < 100 nM | < 1000 nM | < 1000 nM | < 100 nM | < 1000 nM |
| CC(C)(C)OC(=O)NCc1cccc(-c2csc3cnc(Nc4ccc(CN5CCOCC5)cc4)nc23)c1 [Compound 92] | < 5000 nM | < 100 nM | < 1000 nM | < 1000 nM | < 500 nM | < 5000 nM |
| c1cc(-c2csc3cnc(Nc4ccc(CN5CCOCC5)cc4)nc23)cc(N2CCNCC2)c1 [Compound 93, N-(4-(morpholinomethyl)phenyl)-7-(3-(piperazin-1-yl)phenyl)thieno[3,2-d]pyrimidin-2-amine] | < 1000 nM | < 100 nM | < 1000 nM | < 1000 nM | < 100 nM | < 1000 nM |
| COc1cc(Nc2ncc3scc(-c4ccc(NCCN5CCOCC5)nc4)c3n2)cc(OC)c1OC [Compound 94, 7-(6-(2-morpholinoethylamino)pyridin-3-yl)-N-(3,4,5-trimethoxyphenyl)thieno[3,2-d]pyrimidin-2-amine] | < 1000 nM | < 100 nM | < 1000 nM | < 1000 nM | < 500 nM | < 1000 nM |
| CCc1ccccc1-c1csc2cnc(Nc3ccc(OCCN4CCCC4)cc3)nc12 [Compound 95, 7-(2-ethylphenyl)-N-(4-(2-(pyrrolidin-1-yl)ethoxy)phenyl)thieno[3,2-d]pyrimidin-2-amine] | < 1000 nM | < 100 nM | < 1000 nM | < 1000 nM | < 100 nM | < 1000 nM |
| CC(C)c1ccccc1-c1csc2cnc(Nc3ccc(OCCN4CCCC4)cc3)nc12 [Compound 96] | < 1000 nM | < 100 nM | < 1000 nM | < 1000 nM | < 100 nM | < 1000 nM |
| NCc1ccc(-c2csc3cnc(Nc4ccc(CN5CCOCC5)cc4)nc23)cc1 [Compound 97, 7-(4-(aminomethyl)phenyl)-N-(4-(morpholinomethyl)phenyl)thieno[3,2-d]pyrimidin-2-amine] | < 1000 nM | < 100 nM | < 1000 nM | < 1000 nM | < 100 nM | < 1000 nM |
| CCN1CCC(Oc2ccc(Nc3ncc4scc(-c5cn[nH]c5)c4n3)cc2)CC1 [Compound 98, N-(4-(1-ethylpiperidin-4-yloxy)phenyl)-7-(1H-pyrazol-4-yl)thieno[3,2-d]pyrimidin-2-amine] | < 1000 nM | < 100 nM | < 1000 nM | < 1000 nM | < 100 nM | < 1000 nM |
